Measured values from patent US20220370448A1, “PHARMACEUTICAL COMPOSITION COMPRISING THIRD GENERATION SMALL MOLECULE EGFR INHIBITOR AND PREPARATION METHOD THEREOF” (Jiangsu Hansoh Pharmaceutical Group Co., LTD., priority 2018, published 2022).

How the values were obtained:
Solubility = format: physicochemical; settings: dependence on pH
From the text: The pharmaceutical composition prepared according to the present invention has a good and uniform dissolution in different dissolution media.

Permeability = format: in vitro ADME
EGFR T790M mutant = EGFR T790M mutant (Homo sapiens, UniProt P00533, T790M); settings: background statement, WO2016054987; cited from earlier work
wild-type EGFR = wild-type EGFR (Homo sapiens, UniProt P00533); settings: background statement, WO2016054987; cited from earlier work
wild-type EGFR, sequence (P00533 25-1210): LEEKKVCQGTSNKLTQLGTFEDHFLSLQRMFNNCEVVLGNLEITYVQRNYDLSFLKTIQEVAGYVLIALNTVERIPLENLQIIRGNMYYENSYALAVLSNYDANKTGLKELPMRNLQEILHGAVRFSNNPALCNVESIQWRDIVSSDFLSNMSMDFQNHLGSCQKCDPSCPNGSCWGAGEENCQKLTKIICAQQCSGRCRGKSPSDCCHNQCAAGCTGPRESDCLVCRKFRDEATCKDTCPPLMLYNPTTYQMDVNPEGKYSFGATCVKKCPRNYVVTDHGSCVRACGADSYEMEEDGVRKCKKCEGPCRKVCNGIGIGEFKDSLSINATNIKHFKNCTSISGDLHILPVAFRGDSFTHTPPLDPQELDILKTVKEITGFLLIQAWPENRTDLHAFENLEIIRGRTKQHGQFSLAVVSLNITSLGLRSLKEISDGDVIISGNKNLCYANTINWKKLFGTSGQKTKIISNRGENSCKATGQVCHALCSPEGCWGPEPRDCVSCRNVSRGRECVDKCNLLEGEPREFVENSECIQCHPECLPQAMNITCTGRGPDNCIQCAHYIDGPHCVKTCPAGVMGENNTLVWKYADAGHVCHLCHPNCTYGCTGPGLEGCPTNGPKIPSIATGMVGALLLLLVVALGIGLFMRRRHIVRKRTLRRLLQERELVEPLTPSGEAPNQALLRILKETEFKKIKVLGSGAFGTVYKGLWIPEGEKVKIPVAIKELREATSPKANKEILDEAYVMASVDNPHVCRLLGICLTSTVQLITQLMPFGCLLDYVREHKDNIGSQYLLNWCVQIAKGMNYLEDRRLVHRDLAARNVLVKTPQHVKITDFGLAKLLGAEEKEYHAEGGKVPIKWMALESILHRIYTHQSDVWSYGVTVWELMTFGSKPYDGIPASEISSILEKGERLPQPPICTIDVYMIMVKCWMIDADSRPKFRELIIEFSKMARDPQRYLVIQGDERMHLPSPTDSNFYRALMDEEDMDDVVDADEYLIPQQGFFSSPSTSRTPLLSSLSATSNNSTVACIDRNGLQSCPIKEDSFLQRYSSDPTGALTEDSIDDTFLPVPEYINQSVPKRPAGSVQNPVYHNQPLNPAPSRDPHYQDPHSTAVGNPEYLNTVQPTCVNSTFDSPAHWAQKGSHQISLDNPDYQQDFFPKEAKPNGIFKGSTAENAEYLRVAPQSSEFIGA

EGFR T790M mutant, sequence (P00533 25-1210 T790M): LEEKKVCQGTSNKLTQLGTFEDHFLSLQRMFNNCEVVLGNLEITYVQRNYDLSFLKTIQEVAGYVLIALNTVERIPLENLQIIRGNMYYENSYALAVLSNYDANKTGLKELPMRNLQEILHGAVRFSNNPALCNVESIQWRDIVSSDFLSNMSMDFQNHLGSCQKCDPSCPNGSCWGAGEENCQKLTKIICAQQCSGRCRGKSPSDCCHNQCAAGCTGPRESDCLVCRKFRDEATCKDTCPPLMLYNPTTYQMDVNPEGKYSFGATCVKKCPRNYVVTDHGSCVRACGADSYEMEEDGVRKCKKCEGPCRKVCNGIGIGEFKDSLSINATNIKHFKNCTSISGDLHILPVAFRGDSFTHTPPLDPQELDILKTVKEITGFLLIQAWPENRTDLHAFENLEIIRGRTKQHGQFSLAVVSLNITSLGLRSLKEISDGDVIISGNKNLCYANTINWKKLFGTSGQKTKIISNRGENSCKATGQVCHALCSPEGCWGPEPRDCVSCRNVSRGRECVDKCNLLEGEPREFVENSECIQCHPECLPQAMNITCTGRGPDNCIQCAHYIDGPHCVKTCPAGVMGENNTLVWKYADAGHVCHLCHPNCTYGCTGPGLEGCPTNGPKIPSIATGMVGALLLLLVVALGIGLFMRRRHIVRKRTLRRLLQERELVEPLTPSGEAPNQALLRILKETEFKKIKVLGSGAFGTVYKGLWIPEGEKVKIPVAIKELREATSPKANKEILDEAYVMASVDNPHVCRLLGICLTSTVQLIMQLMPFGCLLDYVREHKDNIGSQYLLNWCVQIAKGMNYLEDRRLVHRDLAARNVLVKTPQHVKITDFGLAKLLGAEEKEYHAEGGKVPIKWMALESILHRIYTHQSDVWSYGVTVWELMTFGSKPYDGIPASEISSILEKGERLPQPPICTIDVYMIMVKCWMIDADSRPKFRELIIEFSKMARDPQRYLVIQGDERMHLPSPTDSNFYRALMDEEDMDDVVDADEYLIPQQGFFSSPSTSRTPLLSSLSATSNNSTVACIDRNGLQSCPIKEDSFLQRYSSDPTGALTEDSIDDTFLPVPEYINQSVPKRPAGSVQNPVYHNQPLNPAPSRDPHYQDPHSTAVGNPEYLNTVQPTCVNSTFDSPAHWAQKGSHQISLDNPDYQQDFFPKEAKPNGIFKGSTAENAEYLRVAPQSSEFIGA

For C=CC(=O)Nc1cc(Nc2nccc(-c3cn(C4CC4)c4ccccc34)n2)c(OC)cc1N(C)CCN(C)C [compound of formula I, N-(5-((4-(1-cyclopropyl-1H-indol-3-yl)pyrimidin-2-yl)amino)-2-((2-(dimethylamino)ethyl)(methyl)amino)-4-methoxyphenyl)acrylamide], the solubility (Solubility) is listed as “greatly affected by pH”, the permeability (Permeability) is listed as “low permeability” and the “selectivity for inhibiting the EGFR T790M mutant” value (EGFR T790M mutant) is listed as “high selectivity”. The “activity on wild-type EGFR” value (wild-type EGFR) was “no or low activity”.
